Source: patent publication US20230126447A1, “OCULAR DRUG DEPOT FOR COMPLEMENT-MEDIATED DISORDERS” (priority 2020, published 2023)

What was measured:
AP activity = assay: cells; conditions: Oryctolagus cuniculus, Erythrocyte, read-out: IC50 for rabbit erythrocyte hemolysis
[1] = Ocular tissue and plasma pharmacokinetics, 50 mg/kg BID oral, Dutch Belted rabbits (Example 4/5); format: in vivo; conditions: DB rabbit; for Mean Choroid-RPE concentration / Mean Iris-Ciliary Body concentration / Mean plasma concentration / Mean retina concentration / Optic Nerve concentration / Vitreous concentration: 50 mg/kg BID oral; for Mean Choroid-RPE concentration / Mean Iris-Ciliary Body concentration / Mean plasma concentration / Mean retina concentration: 50 mg/kg
Experimental: Study design, including group designation and dose levels, are outlined in Table 15. […] Two Dutch Belted rabbits received vehicle only oral gavage doses for tolerability assessment. […] The dose volume was 5 mL/kg/dose for all groups. Safety was assessed with toxicological and ophthalmic examinations, including slit lamp biomicroscopy, indirect ophthalmoscopy, rebound tonometry, and ultrasonic corneal pachymetry.
For the pharmacokinetic determination, a single blood sample was taken from each rabbit from Groups 1 and 4 at one hour post-dose on Day 15, Group 2 at one hour post-dose on Day 8, and Group 3 at pre-dose, 1, 6, 24, 96, 168, and 240 hours post-dose on Day 15, with the eyes collected at the same time as blood sampling. Plasma, vitreous humor (VH), retina, choroid-retina pigmented epithelium (Choroid-RPE), optic nerve (ON), and iris-ciliary body (I-CB) were analyzed by LC-MS/MS to quantify test article concentrations. The lower limit of quantitation (LLOQ) in plasma and vitreous humor was 1.0 ng/mL. The LLOQ was 6.0 ng/g in retina, choroid-RPE, and I-CB and the optic nerve LLOQ was 15 ng/g, assuming tissue density of 1 g/mL where relevant. […]

[2] = Choroid-RPE, 50 mg/kg BID, Day 15
[3] = Iris-Ciliary Body, 50 mg/kg BID, Day 15
[4] = Optic Nerve, 50 mg/kg BID, Day 15
[5] = Vitreous Humor, 50 mg/kg BID, Day 15
[6] = male, Dutch Belted, po, Choroid-RPE, 50 mg/kg BID, Day 15
[7] = male, Dutch Belted, po, Iris-Ciliary Body, 50 mg/kg BID, Day 15

## CC(=O)c1nn(CC(=O)N2C[C@H](F)C[C@H]2C(=O)Nc2cccc(Br)n2)c2ccc(-c3cnc(C)nc3)cc12 [Compound 1, (2S,4R)-1-(2-(3-Acetyl-5-(2-methylpyrimidin-5-yl)-1H-indazol-1-yl)acetyl)-N-(6-bromopyridin-2-yl)-4-fluoropyrrolidine-2-carboxamide]
AP activity
  IC50: 27 nM
[1]; [2]
  AUC(0-t): 274000 ng·h/g
  AUC(0-∞): 292000 ng·h/g
  Tlast: 240 h
[1]; 50 mg/kg BID for 14 days
  Optic nerve concentration after 24 hours post-dose (non-detectable): < 1.0 ng/mL
  Plasma concentration after 24 hours post-dose (non-detectable): < 1.0 ng/mL
  Vitreous humor concentration after 24 hours post-dose (non-detectable): < 1.0 ng/mL
[1]; Day 15, 0 h
  Mean Choroid-RPE concentration: 3918 ± 950 ng/g
  Mean Iris-Ciliary Body concentration: 5076 ± 586 ng/g
  Mean plasma concentration: 104 ± 68 ng/mL
  Mean retina concentration: 159 ± 87.9 ng/g
[1]; Day 15, 1 h
  Mean Choroid-RPE concentration: 8025 ± 2350 ng/g
  Mean Iris-Ciliary Body concentration: 11475 ± 2022 ng/g
  Mean plasma concentration: 2895 ± 884 ng/mL
  Mean retina concentration: 2122 ± 376 ng/g
[1]; Day 15, 6 h
  Mean Choroid-RPE concentration: 4373 ± 1586 ng/g
  Mean Iris-Ciliary Body concentration: 8822 ± 2621 ng/g
  Mean plasma concentration: 321 ± 70.0 ng/mL
  Mean retina concentration: 725 ± 117 ng/g
[1]; Day 15, 24 h
  Mean Choroid-RPE concentration: 2097 ± 273 ng/g
  Mean Iris-Ciliary Body concentration: 5556 ± 2128 ng/g
  Mean plasma concentration: 39.9 ± 4.45 ng/mL
  Mean retina concentration: 265 ± 113 ng/g
[1]; Day 15, 96 h
  Optic Nerve concentration: BLQ^b
  Vitreous concentration: BLQ^c
  Mean Choroid-RPE concentration: 873 ± 392 ng/g
  Mean Iris-Ciliary Body concentration: 2837 ± 1136 ng/g
  Mean plasma concentration: BLQ^a and BLQ
  Mean retina concentration: 32.3 ± 24.2 ng/g
[1]; Day 15, 168 h
  Optic Nerve concentration: BLQ^b
  Vitreous concentration: BLQ^c
  Mean Choroid-RPE concentration: 645 ± 67.2 ng/g
  Mean Iris-Ciliary Body concentration: 2292 ± 445 ng/g
  Mean plasma concentration: BLQ^a and BLQ
  Mean retina concentration: 54.9 ± 7.28 ng/g
[1]; Day 15, 240 h
  Optic Nerve concentration: BLQ^b
  Vitreous concentration: BLQ^c
  Mean Choroid-RPE concentration: 195 ± 41.5 ng/g
  Mean Iris-Ciliary Body concentration: 1624 ± 1275 ng/g
  Mean plasma concentration: BLQ^a and BLQ
  Mean retina concentration: 39.4 ± 20.1 ng/g
[1]; [3]
  AUC(0-t): 801000 ng·h/g
  AUC(0-∞): 1220000 ng·h/g
  Tlast: 240 h
[1]; [4]
  AUC(0-t): 4880 ng·h/g
  AUC(0-∞): 5180 ng·h/g
[1]; Retina, 50 mg/kg BID, Day 15
  AUC(0-t): 30300 ng·h/g
  AUC(0-∞): 35700 ng·h/g
  Tlast: 240 h
[1]; [5]
  AUC(0-t): 419 ng·h/g
  AUC(0-∞): 442 ng·h/g
  Tlast: 24 h
[1]; [6]
  Cmax: 8020 ng/g
  MRT last: 68.6 h
  Tmax: 1 h
  half-life: 66.4 h
[1]; [7]
  Cmax: 11500 ng/g
  MRT inf: 138 h
  MRT last: 88 h
  Tmax: 1 h
  half-life: 178 h
